The results in this text go back to ChEMBL document CHEMBL1147072, “Synthesis and evaluation of transthyretin amyloidosis inhibitors containing carborane pharmacophores” (Proc Natl Acad Sci U S A, 2007).

The target in test [1] is T1, Transthyretin (Homo sapiens, UniProt P02766). Description: Inhibition of human transthyretin assessed as amyloid fibril formation at pH 4.4 after 72 hrs relative to control. Details: scale not given: the % may be the effect or the level left.
For test [2], the target named is T1, Transthyretin. Nature of the test: Inhibition of human transthyretin fibril formation at pH 4.4 after 72 hrs.

Usually IC50 stands for the concentration that inhibits the measured activity by half. `O=C(O)c1ccccc1Nc1cccc(C(F)(F)F)c1` [FLUFENAMIC ACID]: the Activity at Transthyretin [1] was found to be 14%. For the same compound, it took 2900 nM to reach half-maximal inhibition against Transthyretin [2] (IC50).
